Our source for the Activity values is ChEMBL document CHEMBL1145713, “Cyclic peptides from higher plants. 34. Segetalins G and H, structures and estrogen-like activity of cyclic pentapeptides from Vaccaria segetalis” (1997).

The assay concerns Rattus norvegicus. The assay can be described thus: Estrogen-like activity in ovariectomized SD rat assessed as increase in uterus weight at 2.5 mg/kg, sc administered daily for 14 days. The assay is classed as functional. The note with it: route subcutaneous.

Structures are written as SMILES. Peptide text beside a SMILES is read from it.

With `CC(C)[C@@H]1NC(=O)[C@@H]2CCCN2C(=O)[C@H](C(C)C)NC(=O)CNC(=O)[C@H](C)NC(=O)[C@H](Cc2c[nH]c3ccccc23)NC1=O` [SEGETALIN A] (cyclo(AGVPVW)), the Activity was determined as 54.4 mg.

Take `CC(C)[C@@H]1NC(=O)CNC(=O)[C@H](C)NC(=O)[C@H](Cc2c[nH]c3ccccc23)NC(=O)[C@H](C)NC1=O` [SEGETALIN B] (cyclo(AGVAW)): the Activity is 56.3 mg. The value for `CC(C)[C@@H]1NC(=O)CNC(=O)[C@H](C)NC(=O)[C@H](Cc2ccc(O)cc2)NC(=O)[C@H](CCCCN)NC1=O` [SEGETALIN G] (cyclo(AGVKY)) was 51.2 mg; that for `N=C(N)NCCC[C@@H]1NC(=O)[C@H](Cc2ccc(O)cc2)NC(=O)CNC(=O)[C@H](CO)NC(=O)[C@H](Cc2ccccc2)NC1=O` [SEGETALIN H] (cyclo(FSGYR)) was 54.8 mg.
